This assay deals with Cyclin-dependent kinase 2 (Homo sapiens, UniProt P24941). Briefly: Enzymatic Assay.

Our source for the EC50 and IC50 values is BindingDB's records for doi:10.1016/j.chembiol.2006.05.008 (Gpc Biotech, 2006).

Molecules are shown by their SMILES.

Experimental: CAII assays were performed at CEREP (paris). All other kinase assays were performed at Upstate (Dundee, UK).

On to `CC(C)c1nn(-c2c(Cl)cc(Cl)cc2Cl)c2nc(Cc3ccc(OC(C)(C)C(=O)O)cc3)[nH]c(=O)c12` [RGB-285961], for which a half-maximal response (EC50) required 70 nM and the IC50 – broadly, the midpoint of a concentration-inhibition curve – stood at 20 nM.
